Measured values from article PMC3728092, “Improvement of Pharmacokinetics Behavior of Apocynin by Nitrone Derivatization: Comparative Pharmacokinetics of Nitrone-Apocynin and its Parent Apocynin in Rats” (PLoS ONE, 2013).
Several values for one entry are separate records, joined by “and”; a condition that tells them apart may be missing. Equal values may be shown once. Read-outs that look alike come from different tables or passages of the source.

Legend:
[1] = Stability of analytes in rat plasma under different storage conditions; assay type: in vitro ADME; conditions: for Accuracy, post-preparative stability: post-preparative QC samples; for Accuracy, post-preparative stability / Accuracy, short-term stability / Accuracy, freeze-thaw stability / Accuracy, long-term stability: n = 5; for time post-preparative solutions stable: room temperature; for Accuracy in stability test (summary) / Accuracy, short-term stability / Accuracy, freeze-thaw stability / Accuracy, long-term stability: rat plasma; for Accuracy in stability test (summary): long-term −20°C, short-term room temperature and three freeze-thaw cycles; for Accuracy, freeze-thaw stability: three freeze-thaw cycles; for Accuracy, long-term stability: −20°C for 30 days
Protocol: The stability of analytes in rat plasma stored under different conditions was assessed at low, medium and high QC concentrations, respectively. The conditions included long-term storage at −20°C for 30 days, short-term storage at room temperature (8 h for AN-1, 24 h for apocynin), three freeze-thaw cycles treatment, and post-preparative QC samples stored at room temperature (8 h for AN-1, 24 h for apocynin). The concentrations measured from the above samples were compared with the nominal values of QC plasma samples. Samples were concluded stable and applicable to routine analysis if the deviation of the observed concentration was less than ±15% from the nominal value.

[2] = Single-dose pharmacokinetic study (intravenous and intragastric) with HPLC-UV plasma assay, non-compartmental analysis; assay type: in vivo, Sprague-Dawley rats; conditions: rat; for half-life / bioavailability / Cmax / Tmax / MRT last / clearance: male, Sprague-Dawley, plasma; for bioavailability: oral, read-out: F (absolute oral bioavailability); for MRT last: read-out: MRT0–t (converted)
Protocol: (§1) Male Sprague-Dawley rats, weighing 210–290 g, were fasted for 12 h but with free access to water before dosing. The rats were randomly divided into groups of intravenous AN-1, intravenous apocynin, intragastric AN-1 and intragastric apocynin. […] Apocynin was dissolved in a mixture of propylene glycol-saline (4∶6, v/v). The single-dose pharmacokinetic study was performed. For AN-1, three different doses (20, 40 and 80 mg/kg) were administered for intravenous study (n = 6–8) and one dose (40 mg/kg) was given for intragastric study (n = 6). For apocynin, 50 mg/kg, an equimolar dose to 80 mg/kg (0.302 mmol/kg) of AN-1, was administered for both intravenous (n = 8) and intragastric studies (n = 6). A day before dosing, a cannula was introduced into jugular vein on rats for intravenous dosing and blood sampling in all groups.
Blood samples (0.4 mL) was collected via jugular vein into heparinized tubes at 0 min (before dosing) and 5, 10, 15, 30, 45, 60, 90, 120, 180, 240, 360, 480, 600, 720, 840 min for AN-1 and at 0 min (before dosing) and 2, 4, 6, 10, 15, 20, 30, 40, 50, 60 min for apocynin after intravenous and intragastric dosing. An equal volume of heparinized saline was used to flush the catheter immediately after each blood withdrawal to prevent blood clotting. The blood samples were centrifuged immediately at 10,000 rpm for 5 min at 4°C, and then the plasma was transferred and stored at −20°C until analysis.
The profiles of analyte concentrations in rat plasma versus time were analyzed to calculate pharmacokinetic parameters by a non-compartmental model using DAS software (version 3.0.1, Chinese Mathematical Pharmacology Society).

[3] = tested on: LPS-induced acute lung injury; parameters: method as in earlier work; conditions: rat model of LPS-induced acute lung injury; cited from earlier work
[4] = tested on: RAW 264.7 macrophage cells; parameters: method as in earlier work; conditions: RAW 264.7 cells, compared to parent apocynin, cited from earlier work
[5] = Solubility in water (remark on dosing vehicle); assay type: physicochemical
Protocol: as §1

[6] = tested on: gp91^phox subunit of NADPH-oxidase; parameters: method as in earlier work; conditions: RAW 264.7 macrophage cells; cited from earlier work
[7] = room temperature 8 h, 0.2 µg/mL
[8] = room temperature 8 h, 250 µg/mL
[9] = room temperature 8 h, 400 µg/mL
[10] = intravenous and oral (intragastric), range over all intravenous and intragastric dose groups, read-out: terminal elimination half-life
[11] = po, intragastric, 40 mg/kg, n = 6
[12] = room temperature 24 h, 0.4 µg/mL
[13] = room temperature 24 h, 40 µg/mL
[14] = room temperature 24 h, 80 µg/mL
[15] = po, intragastric, 50 mg/kg, n = 6

SMILES: COc1cc(C(C)=O)cc(/C=[N+](\[O-])C(C)(C)C)c1O [AN-1, (Z)-N-(5-Acetyl-2-hydroxy-3-methoxybenzylidene)-2-methylpropan-2-amine oxide]
- Accuracy, post-preparative stability [1, 7]: 88.61±0.58%
- Accuracy, post-preparative stability [1, 8]: 88.14±0.84%
- Accuracy, post-preparative stability [1, 9]: 91.96±1.51%
- time post-preparative solutions stable [1]: at least 8 h
- Accuracy in stability test (summary) [1]: higher than 90%
- Accuracy, short-term stability [1, 7]: 89.96±0.31%
- Accuracy, short-term stability [1, 8]: 91.99±1.37%
- Accuracy, short-term stability [1, 9]: 91.46±0.96%
- Accuracy, freeze-thaw stability ([1]; 0.2 µg/mL): 94.79±0.46%
- Accuracy, freeze-thaw stability ([1]; 250 µg/mL): 95.56±0.95%
- Accuracy, freeze-thaw stability ([1]; 400 µg/mL): 96.33±0.98%
- Accuracy, long-term stability ([1]; 0.2 µg/mL): 92.98±1.91%
- Accuracy, long-term stability ([1]; 250 µg/mL): 94.74±2.43%
- Accuracy, long-term stability ([1]; 400 µg/mL): 91.92±0.86%
- half-life [2, 10]: 2.71 to 3.35 h
- bioavailability ([2]; intragastric 40 mg/kg vs intravenous 40 mg/kg): 78%
- Cmax [2, 11]: 80 ± 20 µM
- Tmax [2, 11]: 0.43 h
- MRT last [2, 11]: 4.85 h
- half-life ([2]; po, intragastric, 40 mg/kg, n = 6, read-out: T1/2): 3.35 ± 1.62 h
- clearance ([2]; intravenous, 20 mg/kg, n = 8): 5 ± 1 mL/min/kg
- MRT last ([2]; intravenous, 20 mg/kg, n = 8): 2.94 h
- half-life ([2]; intravenous, 20 mg/kg, n = 8, read-out: T1/2): 2.86 ± 1.33 h
- clearance ([2]; intravenous, 40 mg/kg, n = 6): 6 ± 1 mL/min/kg
- MRT last ([2]; intravenous, 40 mg/kg, n = 6): 3.22 h
- half-life ([2]; intravenous, 40 mg/kg, n = 6, read-out: T1/2): 2.71 ± 0.938 h
- half-life ([2]; intravenous, 80 mg/kg (0.302 mmol/kg), n = 8, read-out: T1/2): 3 ± 0.748 h
- clearance ([2]; intravenous, 80 mg/kg, n = 8): 5 ± 1 mL/min/kg
- MRT last ([2]; intravenous, 80 mg/kg, n = 8): 3.42 h
- exposure in the systemic circulation (AUC0–t) relative to apocynin ([2]; equimolar intravenous dose 0.302 mmol/kg): 25 fold
- AUC0–t ([2]; intragastric, 40 mg/kg, n = 6): 20.68 ± 3.95 mmol·min/L
- CL ([2]; intragastric, 40 mg/kg, n = 6): 7 ± 1 mL/min/kg
- V ([2]; intragastric, 40 mg/kg, n = 6): 1.95 ± 0.90 L/kg
- AUC0–t ([2]; intravenous, 20 mg/kg, n = 8): 14.88 ± 1.31 mmol·min/L
- V ([2]; intravenous, 20 mg/kg, n = 8): 1.20 ± 0.54 L/kg
- AUC0–t ([2]; intravenous, 40 mg/kg, n = 6): 26.51 ± 5.12 mmol·min/L
- V ([2]; intravenous, 40 mg/kg, n = 6): 1.27 ± 0.32 L/kg
- AUC0–t ([2]; intravenous, 80 mg/kg (0.302 mmol/kg), n = 8, 80 mg/kg): 61.89 mmol·min/L and 61.89 ± 7.59 mmol·min/L
- V ([2]; intravenous, 80 mg/kg, n = 8): 1.20 ± 0.32 L/kg
- activity of superoxide dismutase in the lung of model rats [3]: significantly increased
- treatment effect for the lung injury of model rats [3]: greater treatment effect than apocynin
- protection against t-BHP inducing oxidative cytotoxicity [4]: protected
- ROS production ([4]; t-BHP): attenuated the ROS production markedly
- solubility in water [5]: poor solubility in water
- expression of gp91^phox induced by t-BHP [6]: depressing the high expression

SMILES: COc1cc(C(C)=O)ccc1O [Apocynin, 4-hydroxy-3-methoxyacetophenone]
- Accuracy, post-preparative stability [1, 12]: 98.34±6.26%
- Accuracy, post-preparative stability [1, 13]: 94.57±0.60%
- Accuracy, post-preparative stability [1, 14]: 92.51±1.43%
- time post-preparative solutions stable [1]: at least 8 h
- Accuracy in stability test (summary) [1]: higher than 90%
- Accuracy, short-term stability [1, 12]: 102.47±6.10%
- Accuracy, short-term stability [1, 13]: 95.52±1.01%
- Accuracy, short-term stability [1, 14]: 94.11±1.35%
- Accuracy, freeze-thaw stability ([1]; 0.4 µg/mL): 102.87±1.62%
- Accuracy, freeze-thaw stability ([1]; 40 µg/mL): 95.48±0.69%
- Accuracy, freeze-thaw stability ([1]; 80 µg/mL): 93.60±1.79%
- Accuracy, long-term stability ([1]; 0.4 µg/mL): 102.17±0.87%
- Accuracy, long-term stability ([1]; 40 µg/mL): 95.18±0.34%
- Accuracy, long-term stability ([1]; 80 µg/mL): 94.09±0.99%
- half-life [2, 10]: 0.0983 to 0.102 h
- bioavailability ([2]; intragastric 50 mg/kg vs intravenous 50 mg/kg): 2.8%
- Cmax [2, 15]: 8 ± 2 µM
- Tmax [2, 15]: 0.0883 h
- MRT last [2, 15]: 0.135 h
- half-life ([2]; po, intragastric, 50 mg/kg, n = 6, read-out: T1/2): 0.0983 ± 0.03 h
- half-life ([2]; intravenous, 50 mg/kg (0.302 mmol/kg), n = 8, read-out: T1/2): 0.102 ± 0.015 h
- clearance ([2]; intravenous, 50 mg/kg, n = 8): 120 ± 20 mL/min/kg
- MRT last ([2]; intravenous, 50 mg/kg, n = 8): 0.117 h
- AUC0–t ([2]; intragastric, 50 mg/kg, n = 6): 0.07 ± 0.01 mmol·min/L
- CL ([2]; intragastric, 50 mg/kg, n = 6): 3670 ± 350 mL/min/kg
- V ([2]; intragastric, 50 mg/kg, n = 6): 31.46 ± 12.14 L/kg
- AUC0–t ([2]; intravenous, 50 mg/kg (0.302 mmol/kg), n = 8, 50 mg/kg): 2.49 ± 0.46 mmol·min/L
- AUC0–t ([2]; intravenous, 50 mg/kg (0.302 mmol/kg), n = 8, listed as apocynin, 50 mg/kg): 2.49 mmol·min/L
- V ([2]; intravenous, 50 mg/kg, n = 8): 1.09 ± 0.30 L/kg
